Laboratory results: paper PMC4859512, “Polyamino-Isoprenic Derivatives Block Intrinsic Resistance of P. aeruginosa to Doxycycline and Chloramphenicol In Vitro” (PLoS ONE, 2016)
Values after ≈ are worked out from the molar mass of the structure shown. Residues, ends and D or L forms follow the SMILES beside them. *: point of attachment. βNA = c1ccc2cc(N*)ccc2c1

Experiments:
human fibroblasts = test: WST-1 cytotoxicity test, fibroblasts; type: cell-based; settings: Homo sapiens, Fibroblast; WST1, 24 h; mean +/- SD, 2 independent experiments
Protocol: (§1) CHO-K1 cells (ATCC-LGC Standards Sarl (Molsheim, France) and human fibroblasts (Clinisciences, Paris, France) were maintained in McCoy’s 5A and DMEM media, respectively, supplemented with 10% bovine calf serum, 2 mM glutamine, and 100 U/mL/10 μg/mL penicillin/streptomycin. They were incubated at 37°C in a humidified atmosphere containing 5% CO2. The cell lines were seeded in 96-well plates and incubated overnight. The cytotoxic effects of compounds were assessed by the colorimetric WST-1 cell proliferation assay as previously described. Briefly, a range of compound concentrations from 30 μM to 1200 μM was added to triplicate cultures, and cells were incubated at 37°C for 24 h. At the end of the incubation period, cultures were washed three times with phosphate buffer saline (PBS) and incubated in fresh culture medium containing 10% WST-1 for an additional 30 min. Cell viability was evaluated by measuring the WST-1 absorbance at 450 nm in a microplate spectrophotometer MRX1 II (Dynex technologies, Chantilly, VA, USA). The Inhibitory Concentration 50% (IC50) was chosen to evaluate the cytotoxicity of compounds. IC50 was defined as the concentration of a compound that induced a 50% decrease in viable cells. Doxorubicin was used as a positive control.

CHO-K1 cells = test: cells; type: cell-based, Chinese Hamster; settings: Cricetulus griseus, CHO-K1; WST1, 24 h; mean +/- SD, 2 independent experiments
Protocol: as §1

P. aeruginosa PA01 [1] = test: Checkerboard assay with doxycycline; type: cell-based, Pseudomonas aeruginosa; settings: PA01
Protocol: Serial two-fold dilutions of antimicrobial agents were mixed together in a microtiter plate. The range of concentration of each drug was twice the MIC, down to the eleventh serial two-fold dilutions below this amount. Doxycycline was serially diluted along the X-axis, and the polyamino-isoprenic compound or PAßN was diluted along the Y-axis as indicated. Each well was inoculated with a bacterial inoculum of 5 x 10^5 CFU/ml, and the plates were incubated at 37°C for 18 h under aerobic conditions. Each plate also contained a row and a column in which a serial dilution of polyamino-isoprenic compound or doxycycline, respectively, was present alone to determine the MIC. The FIC index was calculated as follows: FIC index = FIC A + FIC B, where FIC A is the MIC of drug A in the combination/MIC of drug A alone and FIC B is the MIC of drug B in the combination/MIC of drug B alone. The combination was considered synergistic when the FIC index is ≤0.5, and antagonistic when the FIC index is > 4 [26].

P. aeruginosa PA01 [2] = test: Comparison of efficiency between compounds and PAßN (compound gradient with 2 mg/L doxycycline); type: cell-based, Pseudomonas aeruginosa; settings: PA01, doxycycline 2 mg/L, 18 h
Protocol: Serial dilutions of each compound (from 270 μM to 0.95 μM for PAßN and from 135 μM to 0.06 μM for 3) were prepared in microplates. Doxycycline (2 mg/L) was then added to each well before inoculation of bacteria (5x10^5 cfu/mL). Optical density (600 nm) was measured after 18 hours at 37°C. Only the relevant part of the graphs are shown. Experiments were performed in triplicate.
First, we performed a checkerboard assay to analyze the synergy between doxycycline and the polyamino-isoprenic compound and between doxycycline and PAβN. For both, compound 3 and PAβN we observed a synergistic inhibition of growth when combined with doxycycline with a FIC Index of 0.09 (S2 Table). […] PAßN is generally used at a concentration greater than 10 μM to inhibit the resistance of P. aeruginosa with respect to various antibiotics, and, to our knowledge, no data have been reported in the literature on its use in combination with doxycycline. The percentage of growth inhibition was monitored as a function of compound concentration, and the results are presented in Fig 3.

[3] = system: P. aeruginosa PA0-7H (Mex EF overproducer); test: Antibiotic susceptibility testing (broth micro-dilution MIC), strain PA0-7H; type: cell-based, Pseudomonas aeruginosa; settings: for MIC of Amikacin in the presence of the compound / MIC of Ceftazidime in the presence of the compound / MIC of Ciprofloxacin in the presence of the compound / MIC of Ticarcillin in the presence of the compound: PA0-7H
Protocol: (§2) Experiments were performed on the BAC-SCREEN platform of the UMR-MD1, with a Freedom EVO 150 liquid handling system (Tecan, Lyon, France).
(§3) We concluded that compound 3 was the best compound and suitable for a more detailed study. The same experiment was performed using chloramphenicol (4 mg/L) in combination with 3 (10 μM final concentration). Amongst the 20 clinical isolates, the growth of 15 (75%) was impaired, while 5 (25%) were resistant (data not shown). These experiments were performed to study the effect of our compounds on the natural resistance of P. aeruginosa. In addition, we were wondering if compound 3 could also increase susceptibility to other antibiotic families including ß-Lactams, fluoroquinolones and aminoglycosides, that are representative of the main classes of anti-pseudomonal agents. Experiments were performed with the ß-lactams ceftazidime and ticarcillin and ciprofloxacin and amikacin. […] . […] To better characterize compound 3, we first searched for the minimum concentration of compound that allowed killing of bacteria by doxycycline, and PAßN was used as the reference molecule.

[4] = system: P. aeruginosa PA01 ERY^R (Mex CD overproducer); test: microbe, parasite or virus in culture; type: cell-based, Pseudomonas aeruginosa; settings: for MIC of Amikacin in the presence of the compound / MIC of Ceftazidime in the presence of the compound / MIC of Ciprofloxacin in the presence of the compound / MIC of Ticarcillin in the presence of the compound: PA01 ERY R
Protocol: as §2
(§4) The same experiment was performed using chloramphenicol (4 mg/L) in combination with 3 (10 μM final concentration). […] These experiments were performed to study the effect of our compounds on the natural resistance of P. aeruginosa. […] Experiments were performed with the ß-lactams ceftazidime and ticarcillin and ciprofloxacin and amikacin.

[5] = system: P. aeruginosa CMZ091 (Mex XY overproducer); test: Antibiotic susceptibility testing (broth micro-dilution MIC), strain CMZ091; type: cell-based, Pseudomonas aeruginosa; settings: for MIC of Amikacin in the presence of the compound / MIC of Ceftazidime in the presence of the compound / MIC of Ciprofloxacin in the presence of the compound / MIC of Ticarcillin in the presence of the compound: CMZ091
Protocol: as §2, §3

P. aeruginosa PA01 (wt) = test: Antibiotic susceptibility testing (broth micro-dilution MIC), strain PA01; type: cell-based, Pseudomonas aeruginosa; settings: for MIC of Amikacin in the presence of the compound / MIC of Ceftazidime in the presence of the compound / MIC of Ciprofloxacin in the presence of the compound / MIC of Ticarcillin in the presence of the compound: PA01
Protocol: as §2, §4

[6] = system: P. aeruginosa PT629 (Mex AB overproducer); test: Antibiotic susceptibility testing (broth micro-dilution MIC), strain PT629; type: cell-based, Pseudomonas aeruginosa; settings: for MIC of Amikacin in the presence of the compound / MIC of Ceftazidime in the presence of the compound / MIC of Ciprofloxacin in the presence of the compound / MIC of Ticarcillin in the presence of the compound: PT629
Protocol: as §2, §3

[7] = system: P. aeruginosa FB1 (Mex B deleted); test: Antibiotic susceptibility testing (broth micro-dilution MIC), strain FB1; type: cell-based; settings: Pseudomonas aeruginosa, read-out: Minimal Inhibitory Concentration
Protocol: as §2

[8] = doxycycline MIC in the combination 0.125 µg/ml
[9] = doxycycline MIC in the combination 0.25 µg/ml
[10] = doxycycline MIC in the combination 0.5 µg/ml
[11] = doxycycline MIC in the combination 1 µg/ml
[12] = doxycycline MIC in the combination 2 µg/ml
[13] = doxycycline MIC in the combination 4 µg/ml
[14] = doxycycline MIC in the combination 8 µg/ml
[15] = doxycycline MIC in the combination 16 µg/ml
[16] = Pseudomonas aeruginosa, read-out: Minimal Inhibitory Concentration

## COc1cccc2c1C(=O)c1c(O)c3c(c(O)c1C2=O)C[C@@](O)(C(=O)CO)C[C@@H]3O[C@H]1C[C@H](N)[C@H](O)[C@H](C)O1 [Doxorubicin, reference compound]
Human fibroblasts
  IC50: 12.4 ± 2.1 µM
CHO-K1 cells
  IC50: 48.3 ± 6.8 µM

## NC(N)=NCCC[C@H](NC(=O)[C@@H](N)Cc1ccccc1)C(=O)Nc1ccc2ccccc2c1 [PAßN, Phenylalanine-Arginine Beta-Naphthylamide, reference compound] (H-Phe-Arg-βNA)
P. aeruginosa PA01 [1]; [8]
  Concentration of compound associated: 128 µM
  Effect: Synergistic (synergistic when the FIC index is ≤0.5)
  FIC index: 0.13
P. aeruginosa PA01 [1]; [9]
  Concentration of compound associated: 32 µM
  Effect: Synergistic (synergistic when the FIC index is ≤0.5)
  FIC index: 0.04
P. aeruginosa PA01 [1]; [10]
  Concentration of compound associated: 32 µM
  Effect: Synergistic (synergistic when the FIC index is ≤0.5)
  FIC index: 0.05
P. aeruginosa PA01 [1]; [11]
  Concentration of compound associated: 32 µM
  Effect: Synergistic (synergistic when the FIC index is ≤0.5)
  FIC index: 0.06
P. aeruginosa PA01 [1]; [12]
  Concentration of compound associated: 32 µM
  Effect: Synergistic (synergistic when the FIC index is ≤0.5)
  FIC index: 0.09
P. aeruginosa PA01 [1]; [13]
  Concentration of compound associated: 8 µM
  Effect: Synergistic (synergistic when the FIC index is ≤0.5)
  FIC index: 0.13
P. aeruginosa PA01 [1]; [14]
  Concentration of compound associated: 4 µM
  Effect: Synergistic (synergistic when the FIC index is ≤0.5)
P. aeruginosa PA01 [1]; [15]
  Concentration of compound associated: 2 µM
  Effect: Synergistic (synergistic when the FIC index is ≤0.5)
  FIC index: 0.5
P. aeruginosa PA01 [1]; combination with doxycycline
  FIC index: 0.09
P. aeruginosa PA01 [2]
  concentration needed to inhibit growth in the presence of doxycycline: ≥ 15.6 mg/L
P. aeruginosa PA01 [2]; graphically determined on Fig 3
  concentration needed to inhibit growth in the presence of doxycycline: ≥ 30 µM
[3]; compound 10µM
  MIC of Amikacin in the presence of the compound: 4 µg/mL
  MIC of Ceftazidime in the presence of the compound: 1 µg/mL
  MIC of Ciprofloxacin in the presence of the compound: 4 µg/mL
  MIC of Ticarcillin in the presence of the compound: 8 µg/mL
[3]; compound 30µM
  MIC of Amikacin in the presence of the compound: 4 µg/mL
  MIC of Ceftazidime in the presence of the compound: 1 µg/mL
  MIC of Ciprofloxacin in the presence of the compound: 4 µg/mL
  MIC of Ticarcillin in the presence of the compound: 8 µg/mL
[4]; compound 10µM
  MIC of Amikacin in the presence of the compound: 2 µg/mL
  MIC of Ceftazidime in the presence of the compound: 2 µg/mL
  MIC of Ciprofloxacin in the presence of the compound: 0.125 µg/mL
  MIC of Ticarcillin in the presence of the compound: 32 µg/mL
[4]; compound 30µM
  MIC of Amikacin in the presence of the compound: 2 µg/mL
  MIC of Ceftazidime in the presence of the compound: 2 µg/mL
  MIC of Ciprofloxacin in the presence of the compound: ≤ 0.06 µg/mL
  MIC of Ticarcillin in the presence of the compound: 32 µg/mL
[5]; compound 10µM
  MIC of Amikacin in the presence of the compound: 64 µg/mL
  MIC of Ceftazidime in the presence of the compound: 2 µg/mL
  MIC of Ciprofloxacin in the presence of the compound: 0.5 µg/mL
  MIC of Ticarcillin in the presence of the compound: 16 to 32 µg/mL
[5]; compound 30µM
  MIC of Amikacin in the presence of the compound: 32 to 64 µg/mL
  MIC of Ceftazidime in the presence of the compound: 2 µg/mL
  MIC of Ciprofloxacin in the presence of the compound: 0.25 µg/mL
  MIC of Ticarcillin in the presence of the compound: 16 to 32 µg/mL
P. aeruginosa PA01 (wt); compound 10µM
  MIC of Amikacin in the presence of the compound: 16 µg/mL
  MIC of Ceftazidime in the presence of the compound: 2 µg/mL
  MIC of Ciprofloxacin in the presence of the compound: 0.125 µg/mL
  MIC of Ticarcillin in the presence of the compound: 32 µg/mL
P. aeruginosa PA01 (wt); compound 30µM
  MIC of Amikacin in the presence of the compound: 16 µg/mL
  MIC of Ceftazidime in the presence of the compound: 1 µg/mL
  MIC of Ciprofloxacin in the presence of the compound: ≤ 0.06 µg/mL
  MIC of Ticarcillin in the presence of the compound: 32 µg/mL
[6]; compound 10µM
  MIC of Amikacin in the presence of the compound: 4 µg/mL
  MIC of Ceftazidime in the presence of the compound: 8 µg/mL
  MIC of Ciprofloxacin in the presence of the compound: 0.5 µg/mL
  MIC of Ticarcillin in the presence of the compound: > 64 µg/mL
[6]; compound 30µM
  MIC of Amikacin in the presence of the compound: 4 to 8 µg/mL
  MIC of Ceftazidime in the presence of the compound: 2 to 4 µg/mL
  MIC of Ciprofloxacin in the presence of the compound: 0.5 µg/mL
  MIC of Ticarcillin in the presence of the compound: > 64 µg/mL

## O=C(N[C@H](CO)[C@H](O)c1ccc([N+](=O)[O-])cc1)C(Cl)Cl [chloramphenicol]
[3]; [16]
  MIC: > 1020 µg/mL
[4]; [16]
  MIC: 256 µg/mL
[5]; [16]
  MIC: 256 µg/mL
P. aeruginosa PA01 (wt); [16]
  MIC: 256 µg/mL
[6]; [16]
  MIC: 512 µg/mL
[7]
  MIC: 8 µg/mL (≈ 24.8 µM)
